Data on ten compounds can be found in patent US11566007B2, “Ras inhibitors” (Revolution Medicines, Inc., priority 2019, dated 2023).

Each structure is given as a SMILES string. Where two headings read alike, the source gives them in different places.

For series [1] the following is noted: ester bond, 18-membered ring, DCM.
The subject of series [2] is SW1573. To be noted: Canon et al. 2019; cited from earlier work.
In series [3] the test system is NCI-H358 KRASG12C xenograft. The series is described as follows: In vivo NSCLC K-Ras G12C xenograft model. The arrangement: species or system BALB/c nude mice. The method, then:
Cobimetinib was administered by daily oral gavage at 2.5 mg/kg. The combination of Compound B and cobimetinib at their respective single-agent dose and regimen was also tested.

Series [4] deals with NCI-H358 cells. The series is described as follows: Long-term cell proliferation assay (Incucyte confluence). It is filed as cell-based, human. The note with it: trametinib 10 nM. The protocol: The plate was placed in the Incucyte S3 live cell analysis system (37° C., 5% CO2) and confluence was measured by recording images at 6-hour intervals for a maximum of 40 days, or until wells reached maximal confluence. Media and drug were replaced at 3-4 day intervals. Data are plotted as % confluence over the time course of the experiment for each single agent and respective combination (FIG. 5).

Series [5] has as its system NCI-H358 cells. The series is described as follows: 72-hour proliferation assay using CellTiter-Glo reagent. It is filed as cell-based, human. To be noted: read-out: EC50 from a 72-hour proliferation assay. On the technique in general: ATP-based viability assays read luminescence as a measure of living cells.
The mark [6] stands for this setting: single agent: Compound B 50 mg/kg twice weekly intravenous, cobimetinib […] daily oral.

The compound `CC1(C)COC(=O)[C@@H]2CCCN(N2)C(=O)[C@@H](NC(=O)OC(C)(C)C)Cc2cccc(c2)-c2ccc3[nH]c(I)c(c3c2)C1` returned a ring closure, isolated yield in series [1] (from CC(C)(CO)Cc1c(I)[nH]c2ccc(-c3cccc(C[C@H](NC(=O)OC(C)(C)C)C(=O)N4CCC[C@@H](C(=O)O)N4)c3)cc12, EDCI/HOBt/DIPEA, 12.8 mM, 0.0 °C) of 79.8%. Where the note is “from CC(C)(CO)Cc1c(I)[nH]c2ccc(-c3cccc(C[C@H](NC(=O)OC(C)(C)C)C(=O)N4CCC[C@@H](C(=O)O)N4)c3)cc12, ester bond, EDCI/HOBt/DIPEA, DCM, 12.77 mM, 0.0 °C, 16.0 h”, this compound came in with a ring closure, yield of all isomers of 79.8%. For the setting “from CCn1c(-c2cccnc2[C@H](C)OC)c(CC(C)(C)COC(=O)[C@@H]2CCCN(C(=O)[C@H](Cc3coc(Br)n3)NC(=O)OC(C)(C)C)N2)c2cc(B3OC(C)(C)C(C)(C)O3)ccc21, cc_pd bond, XPhos Pd G3/XPhos/K3PO4, dioxane, […], 70.0 °C, 4.0 h”, `CCn1c(-c2cccnc2[C@H](C)OC)c2c3cc(ccc31)-c1nc(co1)C[C@H](NC(=O)OC(C)(C)C)C(=O)N1CCC[C@H](N1)C(=O)OCC(C)(C)C2` registered a ring closure, yield of all isomers of 56%. For the setting “from CCn1c(-c2cccnc2[C@H](C)OC)c(CC(C)(C)COC(=O)[C@@H]2CCCN(C(=O)[C@H](Cc3nc(Br)n(C)n3)NC(=O)OC(C)(C)C)N2)c2cc(B3OC(C)(C)C(C)(C)O3)ccc21, cc_pd bond, XPhos Pd G3/XPhos/K3PO4, 1,4-dioxane, 71.7 mM, 75.0 °C, 3.0 h”, `CCn1c(-c2cccnc2[C@H](C)OC)c2c3cc(ccc31)-c1nc(nn1C)C[C@H](NC(=O)OC(C)(C)C)C(=O)N1CCC[C@H](N1)C(=O)OCC(C)(C)C2` gave a ring closure, yield of all isomers of 56.8%. In turn, `CCn1c(-c2cccnc2[C@H](C)OC)c2c3nc(ccc31)-c1csc(n1)C[C@H](NC(=O)OC(C)(C)C)C(=O)N1CCC[C@H](N1)C(=O)OCC(C)(C)C2` yielded a ring closure, isolated yield in series [1] (from CCn1c(-c2cccnc2[C@H](C)OC)c(CC(C)(C)CO)c2nc(-c3csc(C[C@H](NC(=O)OC(C)(C)C)C(=O)N4CCC[C@@H](C(=O)O)N4)n3)ccc21, EDCI.HCl/HOBt/DIPEA, 6.4 mM) of 43%. Under “from CCn1c(-c2cccnc2[C@H](C)OC)c(CC(C)(C)CO)c2nc(-c3csc(C[C@H](NC(=O)OC(C)(C)C)C(=O)N4CCC[C@@H](C(=O)O)N4)n3)ccc21, ester bond, EDCI/HOBt/DIPEA, DCM, 6.4 mM, 25.0 °C, 16.0 h”, this compound had a ring closure, yield of all isomers of 43%.

The compound `CO[C@@H](C)c1ncccc1-c1c2c3cc(ccc3n1CC(F)(F)F)-c1cccc(n1)C[C@H](NC(=O)OC(C)(C)C)C(=O)N1CCCC(N1)C(=O)OCC(C)(C)C2` (some centres unmarked) returned a ring closure, isolated yield in series [1] (from CO[C@@H](C)c1ncccc1-c1c(CC(C)(C)CO)c2cc(-c3cccc(C[C@H](NC(=O)OC(C)(C)C)C(=O)N4CCCC(C(=O)O)N4)n3)ccc2n1CC(F)(F)F, EDCI/HOBt/DIPEA, 6.27 mM) of 89%. Moreover, the ring closure, yield of all isomers (from CO[C@@H](C)c1ncccc1-c1c(CC(C)(C)CO)c2cc(-c3cccc(C[C@H](NC(=O)OC(C)(C)C)C(=O)N4CCCC(C(=O)O)N4)n3)ccc2n1CC(F)(F)F, ester bond, EDCI/HOBt/DIPEA, DCM, 6.27 mM, 25.0 °C, 3.0 h) is 89%. In turn, `CO[C@@H](C)c1ncccc1-c1c2c3cc(ccc3n1CC(F)(F)F)-c1nc(ns1)C[C@H](NC(=O)OC(C)(C)C)C(=O)N1CCC[C@H](N1)C(=O)OCC(C)(C)C2` showed a ring closure, isolated yield in series [1] (from CO[C@@H](C)c1ncccc1-c1c(CC(C)(C)CO)c2cc(-c3nc(C[C@H](NC(=O)OC(C)(C)C)C(=O)N4CCC[C@@H](C(=O)O)N4)ns3)ccc2n1CC(F)(F)F, EDCI/HOBt/DIPEA, 11.1 mM) of 43.5%. For the setting “from CO[C@@H](C)c1ncccc1-c1c(CC(C)(C)CO)c2cc(-c3nc(C[C@H](NC(=O)OC(C)(C)C)C(=O)N4CCC[C@@H](C(=O)O)N4)ns3)ccc2n1CC(F)(F)F, ester bond, EDCI/HOBt/DIPEA, DCM, 11.1 mM, 25.0 °C, 16.0 h”, the ring closure, yield of all isomers was found to be 43.5%. On to `C=CC(=O)N1CCN(c2nc(=O)n(-c3c(C)ccnc3C(C)C)c3nc(-c4c(O)cccc4F)c(F)cc23)[C@@H](C)C1` [AMG510], for which, in series [2], the “sensitivity of cell line” value is “insensitive”. With `Cc1nc(N2CCC3(CC2)CO[C@@H](C)[C@H]3N)c(CO)nc1-c1cccc(Cl)c1Cl` [RMC-4550], in series [3] (single agent: Compound C 60 mg/kg once weekly intravenous, SHP2 inhibitor (RMC-4550) 30 mg/kg daily oral), the “mice with tumor regression at end of study (out of 10), single agent” value is recorded as 5. For the compound `O=C(c1ccc(F)c(F)c1Nc1ccc(I)cc1F)N1CC(O)([C@@H]2CCCCN2)C1` [cobimetinib], in series [3] (setting [6]), the “effect on tumor growth, single agent” value is given as “tumor growth inhibition” and the “tumor regressions recorded, single agent group” value was “no tumor regressions”. `CC(=O)Nc1cccc(-n2c(=O)n(C3CC3)c(=O)c3c(Nc4ccc(I)cc4F)n(C)c(=O)c(C)c32)c1` [trametinib]: the “time to maximal confluence after the addition of drug” value in series [4] (single agent at EC50 concentration: Compound D 17 nM) is on record as around 10 days. For the same compound, the “cell growth (% confluence) over time, single agent” value in series [4] (submaximal (EC50) concentration: Compound D 17 nM) is listed as “a short period of growth inhibition, followed by proliferation”. In series [5], the EC50 is 10 nM.
